Source: patent publication US6864283B2, “Oxy-and amino-substituted tetrahydrofuryl derivatives with antitumour activity” (Pharma Mar, S.A., priority 2000, dated 2005)

Legend:
Type in all cases: cell-based
P388 leukemia = test: IC50 against P388 leukemia cells; details: Mus musculus
A459 human lung = test: IC50 against A459 human lung cells
HT29 human colon = test: IC50 against HT29 human colon cells; details: HT-29
MEL28 melanoma = test: IC50 against MEL28 melanoma cells; details: Homo sapiens, SK-MEL-28

Measured: IC50

CCCCCCCCCCCCCC[C@@H]1OC[C@H](N)[C@@H]1O [IK-8-73-4]
0.01 µg/mL: P388 leukemia | A459 human lung | HT29 human colon | MEL28 melanoma
